For one compound, MIC results are on record in paper PMC9573696, “Experimental Examination of Solubility and Lipophilicity as Pharmaceutically Relevant Points of Novel Bioactive Hybrid Compounds” (Molecules, 2022).

Converted amounts (≈) assume the structure as drawn.

Assay in all cases: In vitro antifungal activity, microbroth dilution (MIC)
What all share (assay type): cell-based
(Dilution methods test growth across graded concentrations, often in twofold steps.)

The subject of experiment [1] is C. parapsilosis ATCC 22019. The conditions noted are these: Lodderomyces parapsilosis, ATCC22019; C. parapsilosis ATCC 22019; 35 °C, 24 h; read-out: MIC. Here is the method: (§1) The in vitro antifungal screening results of synthesized compounds was evaluated against three fungal strains: C. parapsilosis ATCC 22019, C. utilis 84, and C. glabrata 61L are summarized in Table 1.
(§2) The in vitro antifungal activity of the target compounds was measured by means of the minimal inhibitory concentrations (MIC) with fluconazole as the control drug. Procedure was carried out by the microbroth dilution method in 96-well plates according to the recommendations of the Clinical and Laboratory Standards Institute. The detailed information was reported previously. The investigated pathogenic species included C. parapsilosis ATCC 22019, C. utilis 84 and C. glabrata 61. The sensitivity was evaluated visually, after the incubation at 35 °C for 24 h and the value was compared with the growth density in the reference culture without the sample. Each test was conducted in triplicate.

The test system of a further experiment is C. utilis 84. The conditions noted are these: Williopsis jadinii; C. utilis 84; 35 °C, 24 h; read-out: MIC. Here is the method: as §1, §2
In another experiment the test system is C. glabrata 61L. The conditions noted are these: Nakaseomyces glabratus; C. glabrata 61L; 35 °C, 24 h; read-out: MIC. Here is the method:
as §1, §2

For `OC(Cn1cncn1)(Cn1cncn1)c1ccc(F)cc1F` [Fluconazole, reference compound], the MIC (in general, the least concentration at which growth counts as inhibited) in experiment [1] amounted to 2 µg/mL (≈ 6.53 µM); with C. utilis 84, 2 µg/mL (≈ 6.53 µM); in the experiment with C. glabrata 61L, 8 µg/mL (≈ 26.1 µM).
